The source of these data is patent US10858322B2, “Process for preparing 1-isobutyryl-1′-((1-(4,4,4-trifluorobutyl)-4,5,6,7-tetrahydro-1H-benzo[D]imidazol-2-yl)methyl)spiro[azetidine-3,3′-indolin]-2′-one” (SHANDONG DANHONG PHARMACEUTICAL CO., LTD., priority 2015, dated 2020).

Data set [1] in a line: RSV long CPE assay, CC50 (in vitro toxicity). The note with it: human; Hep2 cells, 5 days, CCK-8 readout, n = 7. The class given is cell-based. The protocol: (§1) RSV long CPE assay Experimental Purpose: The EC50 and CC50 values of anti-RSV respiratory syncytial virus compounds were detected by cytopathology. Experimental Materials: Cell Line: Hep2 Experimental Procedures and Methods: a) Cell Inoculation (Hep2 cell) 1) The cell culture medium was removed and washed with 10 mL of PBS; 2) The preheated trypsin was added to the cleaned culture flask and rotating the flask to allow the trypsin to uniformly cover the culture flask. And then sucked it into a 37° C., 5% CO2 incubator to digest. 3) Each T150 was suspended in 10 to 15 mL culture medium, 0.1 mL was taken and then diluted twice with trypan blue solution. […] The cells were centrifuged (300 rpm) and the cells were adhered to the wall and placed in a 37° C., 5% CO2 incubator overnight. b) Compound addition: 1) The compound dissolved in 100% DMSO was diluted in a half logarithm and added to the cell plate using an Echo liquid handler. To ensure that the final concentration of DMSO was 1%; [table] […] 2) CCK-8 (Dojindo-CK04-20, 6 μL/well) was added to 384 well plates with Multidrop® automatic dispenser. […] 4) The data were analyzed.

In a further data set the test system is Hep2 cells. Kind of data set: RSV long CPE assay, CC50 (in vitro toxicity). It counts as cell-based. The note with it: conclusion from the CPE assay CC50. On the procedure:
as §1

The subject of data set [2] is RSV respiratory syncytial virus (Along strain). Briefly: microbe, parasite or virus in culture. It counts as cell-based. On the procedure:
And then sucked it into a 37° C., 5% CO2 incubator to digest.
3) Each T150 was suspended in 10 to 15 mL culture medium, 0.1 mL was taken and then diluted twice with trypan blue solution.
2) CCK-8 (Dojindo-CK04-20, 6 μL/well) was added to 384 well plates with Multidrop® automatic dispenser.
4) The data were analyzed.

Data set [3] is described as follows: Approximate solubility test of crystal form A. It counts as physicochemical. The note with it: thermodynamic from solid, room temperature (20 to 30° C.).
Data set [4] in a line: Solid physical stability of crystal form A under different temperature and humidity conditions. The following applies: 10th day. It counts as physicochemical. The protocol:
The X-Ray Powder Diffraction method is as follows: Instrument: Bruker D8 ADVANCE X-Ray diffractometer; Target: Cu: K-Alpha; Wavelength λ=1.54179 Å; Tube Voltage: 40 kV; Tube Current: 40 mA; Scanning scope: 4-40°; Sample Rotation speed: 15 rpm; Scanning speed: 10°/min. […] On the tenth day, all samples were removed and returned to room temperature. The appearance changes of samples were observed, and the crystal form of samples was detected by XRPD.

Data set [5] can be described thus: Stability experiment of crystal form A in different solvents (XRPD). It counts as physicochemical. The following applies: 2 days. On the procedure: The X-Ray Powder Diffraction method is as follows:
Instrument: Bruker D8 ADVANCE X-Ray diffractometer; Target: Cu: K-Alpha; Wavelength λ=1.54179 Å; Tube Voltage: 40 kV; Tube Current: 40 mA; Scanning scope: 4-40°; Sample Rotation speed: 15 rpm; Scanning speed: 10°/min.
The mixture was stirred at 40° C. If the compound was completely dissolved, the sample was allowed to cool to room temperature, and if the solid was precipitated, the mixture was continued to stir; and if the sample remained in solution, the solvent was naturally evaporated to remove. After all the suspensions were stirred for 2 days, the solids in all samples were collected and XRPD was used to detect the crystal form state.

The mark [6] stands for this setting: 0 day (−20° C. Sealed Storage) (Control Sample).
[7] abbreviates: 25° C./92.5% Relative Humidity (Open).
The mark [8] stands for this setting: 60° C./75% Relative Humidity (Open).

Converted amounts (≈) assume the structure as drawn. Some results are limits rather than exact numbers.

As a reminder, the CC50 is the concentration at which the toxic effect on the cells reaches its halfway point. One may read the EC50 as the midpoint of the concentration-response curve. In data set [1], `CC(C)C(=O)N1CC2(C1)C(=O)N(Cc1nc3c(n1CCCC(F)(F)F)CCCC3)c1ccccc12` [Compound of formula (I), 1-Isobutyryl-1′-((1-(4,4,4-trifluorobutyl)-4,5,6,7-tetrahydro-1H-benzo[d]imidazol-2-yl)methyl)spiro[azetidine-3,3′-indolin]-2′-one] came in with a 50% cytotoxic concentration (CC50) at 5 days of more than 100000 nM. The cytotoxicity entry in the data set with Hep2 cells is reported as “no cytotoxicity”. For the same compound, the “activity in vitro compared with BMS433771” value in data set [2] (conclusion from the CPE assay) is listed as “better activity in vitro”. For the same compound, the EC50 in data set [2] (human respiratory syncytial virus, HEp-2, 120 h, Hep2 cells, RSV A long strain, 5 days, CCK-8 readout, n = 7, read-out: CPE assay EC50) came out at 7 nM.
As usually defined, the solubility is how much of the substance goes into solution per volume. In the case of `CC(C)C(=O)N1CC2(C1)C(=O)N(Cc1nc3c(n1CCCC(F)(F)F)CCCC3)c1ccccc12` [Crystal Form A, 1-Isobutyryl-1′-((1-(4,4,4-trifluorobutyl)-4,5,6,7-tetrahydro-1H-benzo[d]imidazol-2-yl)methyl)spiro[azetidine-3,3′-indolin]-2′-one], the solubility in data set [3] (acetone-water (1:2), aqueous with cosolvent or surfactant or cyclodextrin, Acetone-H2O (1:2)) is less than 2 mg/mL; in data set [3] (acetonitrile-water (1:1), aqueous with cosolvent or surfactant or cyclodextrin, Acetonitrile-H2O (1:1)) it was 46 to 58 mg/mL (≈ 94.2 to 119 mM); in data set [3] (ethanol-water (1:1), aqueous with cosolvent or surfactant or cyclodextrin, Ethanol-H2O (1:1)) it was 2 to 2.7 mg/mL (≈ 4.09 to 5.53 mM); in data set [3] (ethanol-water (3:1), aqueous with cosolvent or surfactant or cyclodextrin, Ethanol-H2O (3:1)), 22 to 24.5 mg/mL (≈ 45 to 50.1 mM); in data set [3] (isopropanol-water (1:1), aqueous with cosolvent or surfactant or cyclodextrin, Isopropanol-H2O (1:1)), 2.5 to 3 mg/mL (≈ 5.12 to 6.14 mM); in data set [3] (methanol-water (1:1), aqueous with cosolvent or surfactant or cyclodextrin, Methanol-H2O (1:1)) it was less than 2 mg/mL. The solubility in data set [3] (methanol-water (3:1), aqueous with cosolvent or surfactant or cyclodextrin, Methanol-H2O (3:1)) was 45 to 56.5 mg/mL (≈ 92.1 to 116 mM); in data set [3] (organic solvent or mixture, 2-Butanone), 56.9 to 75.8 mg/mL (≈ 116 to 155 mM); in data set [3] (organic solvent or mixture, 2-Methyltetrahydrofuran), 45 to 56.7 mg/mL (≈ 92.1 to 116 mM); in data set [3] (organic solvent or mixture, Acetone), 45.9 to 57.4 mg/mL (≈ 94 to 117 mM); in data set [3] (organic solvent or mixture, Acetonitrile), 42 to 53.6 mg/mL (≈ 86 to 110 mM); in data set [3] (organic solvent or mixture, Cyclohexane) it was less than 2 mg/mL. In addition, the solubility is 45 to 56.5 mg/mL (≈ 92.1 to 116 mM) in data set [3] (organic solvent or mixture, Dioxane); 42 to 52.5 mg/mL (≈ 86 to 107 mM) in data set [3] (organic solvent or mixture, Ethanol); 29 to 34 mg/mL (≈ 59.4 to 69.6 mM) in data set [3] (organic solvent or mixture, Ethyl acetate); 13.9 to 20.9 mg/mL (≈ 28.5 to 42.8 mM) in data set [3] (organic solvent or mixture, Isopropanol); 18 to 20.5 mg/mL (≈ 36.8 to 42 mM) in data set [3] (organic solvent or mixture, Isopropyl acetate); 115 to 231 mg/mL (≈ 235 to 473 mM) in data set [3] (organic solvent or mixture, Methanol). The solubility was 22.9 to 25.5 mg/mL (≈ 46.9 to 52.2 mM) in data set [3] (organic solvent or mixture, Methyl isobutyl ketone); 3 to 3.7 mg/mL (≈ 6.14 to 7.57 mM) in data set [3] (organic solvent or mixture, Methyl tert-butyl ether); 113 to 226 mg/mL (≈ 231 to 463 mM) in data set [3] (organic solvent or mixture, Tetrahydrofuran); 28 to 32.5 mg/mL (≈ 57.3 to 66.5 mM) in data set [3] (organic solvent or mixture, Toluene); 25.9 to 29.5 mg/mL (≈ 53 to 60.4 mM) in data set [3] (organic solvent or mixture, n-Butyl alcohol); less than 2 mg/mL in data set [3] (organic solvent or mixture, n-Heptane). The compound further returned a solubility in data set [3] (water, H2O) of less than 2 mg/mL. For the same compound, the Character entry in data set [4] (setting [6]), in data set [4] (setting [7]), in data set [4] (60° C. (Open)) and in data set [4] (setting [8]) was “White Powder” in each case. The “Crystal Form” value in data set [4] (setting [6]), in data set [4] (setting [7]), in data set [4] (60° C. (Open)) and in data set [4] (setting [8]) was “Crystal Form A” throughout. The “Result (crystal form by XRPD)” value is reported as “Crystal Form A” in data set [5] (2-Methyltetrahydrofuran, stirred at 40° C.); “Crystal Form A” in data set [5] (Acetone, stirred at 40° C.); “Crystal Form B” in data set [5] (Acetone:water = 1:2, stirred at 40° C.); “Crystal Form A” in data set [5] (Dioxane, stirred at 40° C.); “Crystal Form A” in data set [5] (Ethanol, stirred at 40° C.); “Crystal Form B” in data set [5] (Ethanol:water = 3:1, stirred at 40° C.). Besides, the “Result (crystal form by XRPD)” value in data set [5] (Ethyl acetate, stirred at 40° C.) was “Crystal Form A”; in data set [5] (Methanol:water = 3:1, stirred at 40° C.), “Crystal Form A”; in data set [5] (Toluene, stirred at 40° C.), “Crystal Form A”.
